Laboratory results taken from US10919899B2, “Imidazopyrazine compounds, preparation methods and uses thereof” (DONGGUAN ZHENXING-BEITE MEDICINE TECHNOLOGY CO., LTD., priority 2017, dated 2021).
“Also recorded” adds a separate entry of the source. Blank lines part the entries; values can stand above or below the compound they belong to.

Assays:
[1] = test system: Diffuse large B cell lymphoma cell strain TMD-8; assay: Tumor cell proliferation inhibition assay (CellTiter-Glo), TMD-8; assay type: cell-based; conditions: Homo sapiens, TMD8; 72 hours, 10% fetal calf serum; read-out: TMD-8 anti-proliferative IC50 level
Experimental: (§1) Cell viability was evaluated by measuring a content of triphosadenine (ATP) by using CellTiter-Glo luminescent cell viability assay kit method (Promega, # G7572, Madison, Wis.). Diffuse large B cell lymphoma cell strain TMD-8 and HCC827 NSCL cell strains are purchased from Shanghai Fudan IBS Cell Center and American Type Culture Collection (ATCC). After the cells were digested from a cell culture dish by pancreatin and re-suspended by DPBS culture medium, a Scepter automatic cell counter (Millipore, # PHCC00000) was used for counting to measure a cell density. The cells were diluted to be a solution containing 44,000 cells per milliliter. The cell solution with the adjusted density was added into a cell assay plate with 90 μl per well. The well plate was placed to an incubator with 5% CO2 at 37° C. to be incubated for 24 hours and then added with the compound to be tested with different concentrations. The cells and the compound were together incubated for 72 hours in the presence of 10% fetal calf serum. The content of ATP was measured by using CellTiter-Glo® Luminescent Cell Viability Assay kit (referring to manufacturer's instruction) to evaluate the inhibition to the cell growth. Briefly speaking, each well was added with 30 μl of CellTiter-Glo® reagent, the plate was shaken for 10 minutes to induce the cells to be lysed, and fluorescence signal was detected and recorded by fluorescencelchemiluminescence analyzer Fluoroskan Ascent FL (Thermo Scientific Fluoroskan Ascent FL). The maximal signal value was obtained from cells processed by dimethyl sulfoxide (DMSO) for 72 or 120 hours. The minimal signal value obtained from separate culture medium (wherein the number of cells was zero) was defined as 0. Inhibition ratio %=(maximal signal value-compound signal value)/(maximal signal value−minimal signal value)×100%. The data was processed by using GraphPad Prism V5.0 (GraphPad Software San Diego, Calif.) software. IC50 value was fitted and calculated via S-shaped dose-response curve.

[2] = Pharmacokinetic (PK) assay in rats; assay type: in vivo, rat; conditions: 20 mg/kg oral; for AUC(0-t): read-out: AUC0-24
Experimental: A male SD rat with 250-300 g of weight was fasted overnight before the assay. The compound to be tested was dissolved in 30% sulfobutyl ether-β-cyclodextrin (SBE-β-CD) and intragastrically administrated to the rat by 20 mg/kg of dosages. Take blood at 15th minute, 30th minute, and 1st, 2nd, 3rd, 4th, 6th, 8th, and 24th hours after the administratation, and about 0.3 mL of blood was taken at each time point. The blood samples were placed into centrifuge tubes containing K2-EDTA (dipotassium ethylene diamine tetraacetate) and plasma was taken via centrifugal treatment (2,000 g, 10 minutes, 4° C.) and stored in a −80° C. of ultra low temperature refrigerator. 50 μL of plasma sample was mixed with 50 μL of internal standard (IS) and extracted with ethyl acetate. After vacuum dried, the residue was re-dissolved in acetonitrile The sample was filtered and injected into LC-MS/MS to be analyzed.

Txk (h) = Txk (h) (Homo sapiens (Human), UniProt P42681); assay: Txk activity inhibition assay (radioactive protein kinase method, Eurofins); assay type: biochemical; conditions: for IC50: Km ATP, radiometric
Experimental: (§2) The inhibitory activities of the compound to Tec, Txk, and ITK of human were performed by Eurofins Pharma Discovery Services UK Limited (UK) of the United Kingdom. In the case of Km ATP, the radioactive protein kinase method was adopted by the test. The kinase was diluted with buffer solution (20 mM MOPS, 1 mM EDTA, 0.01% Brij-35, 5% Glycerol, 0.1% […], 1 mg/mL BSA) before the reaction. The compound was dissolved in 100% DMSO and was of 50-fold final reaction concentration.
TxK reaction solution contained 8 mM MOPS pH 7.0, 0.2 mM EDTA, 250 μM […], 10 mM magnesium acetate, and [γ-^33P]-ATP (about 500 cpm/pmol), 200 μM ATP-Mg was added, after mixing, the reaction was started, the incubation was performed for 40 minutes at room temperature, and 3% phosphoric acid solution was added to terminate the reaction, 10 μl (reaction solution) was placed on P30 filtration membrane, washed with 75 mM phosphoric acid for 5 minutes, and dried with methanol for one time, and then scintillation counting was performed.

HCC827 NSCLC cell = assay: Tumor cell proliferation inhibition assay (CellTiter-Glo), HCC827; assay type: cell-based; conditions: Homo sapiens, 72 hours, 10% fetal calf serum, read-out: HCC827 anti-proliferative IC50 level
Experimental: as §1

EGFR T790M/L858R = EGFR T790M/L858R (Homo sapiens, UniProt P00533, L858R/T790M); assay: EGFR activity inhibition assay (Caliper mobility shift); assay type: biochemical
Excerpt: The conversion ratio data was read on Caliper EZ Reader II (Caliper Life Sciences).

Tec (h) activated = Tec (h) activated (Homo sapiens (Human), UniProt P42680); assay: Tec activity inhibition assay (radioactive protein kinase method, Eurofins); assay type: biochemical
Experimental: as §2
10 μl (reaction solution) was placed on P30 filtration membrane, washed with 75 mM phosphoric acid for 5 minutes, and dried with methanol for one time, and then scintillation counting was performed.

BTK = BTK (Homo sapiens (Human), UniProt Q06187); assay: BTK kinase activity inhibition assay (Caliper mobility shift); assay type: biochemical; conditions: ATP 90 μM, read-out: BTK IC50 level
Experimental: Activity of BTK protein kinase was tested by Caliper mobility shift assay (referring to J Biomol Screen 14:31, 2009). The compound of the present disclosure was dissolved in DMSO and then diluted 10-fold with kinase buffer solution (50 mM HEPES-pH 7.5, 0.0015% Brij-35, 10 mM MgCl2, 2 mM DTT). […] 10 μl of a substrate solution of a substrate FAM-labeled SRCtide peptide (Biochem, Cat. No. 112394) and ATP (90 μM) with 2.5-fold final reaction concentration was further added to start the reaction. Then incubation was performed for 10 minutes at room temperature. After incubation for 1 hour 28° C., 25 μl of stopping solution (100 mM HEPES, pH 7.5, 0.015% Brij-35, 0.2% Coating Reagent #3, 50 mM EDTA) was added to terminate the reaction. The conversion ratio data was read on Caliper EZ Reader II (Caliper Life Sciences). The inhibition ratio was calculated and the calculation formula is: inhibition ratio %=(max-conversion)/(max-min)×100 %.

[3] = test system: TMD-8 lymphoma cell strain transplanted tumor; assay: Tumor model pharmacodynamic assay, TMD-8 transplanted tumor; assay type: in vivo, mice; conditions: for T/C (relative tumor volume increased ratio): 18 days
Experimental: The dose-effect relationship of inhibition of the compound to tumor growth in a diffuse large B cell lymphoma cell strain TMD-8 transplanted tumor model was studied in the present assay. When volume of TMD-8 tumor reached around 200 mm^3, the animals were divided into four oral administration groups, i.e. vehicle control group and 50 mg/kg, 100 mg/kg, and 200 mg/kg of compound 1 oral administration groups (n=8/
roup). […]
The tumor volume was measured, and the relative tumor volume (RTV) and the relative tumor volume increased ratio were calculated. RTV=Vt/V0, wherein Vt is the average value of the tumor volume at t^th day after the grouping and administrating, and V0 is the average value of the tumor volume at the grouping day. T/C=treatment group RTV/control group RTVx100%.

Itk (h) = Itk (h) (Homo sapiens (Human), UniProt Q08881); assay: ITK activity inhibition assay (radioactive protein kinase method, Eurofins); assay type: biochemical
Experimental: as §2
ITK reaction solution included 8 mM MOPS pH 7.0, 0.2 mM EDTA, 0.33 mg/mL myelin basic protein, 10 mM magnesium acetate, and [γ-^33P]-ATP (about 500 cpm/pmol), 200 μM ATP-Mg was added, after mixing, the reaction was started, the incubation was performed for 40 minutes at room temperature, and 3% phosphoric acid solution was added to terminate the reaction. 10 μl (reaction solution) was placed on P30 filtration membrane, washed with 75 mM phosphoric acid for 5 minutes, and dried with methanol for one time, and then scintillation counting was performed.

Chain of Txk (h) (P42681 whole entry): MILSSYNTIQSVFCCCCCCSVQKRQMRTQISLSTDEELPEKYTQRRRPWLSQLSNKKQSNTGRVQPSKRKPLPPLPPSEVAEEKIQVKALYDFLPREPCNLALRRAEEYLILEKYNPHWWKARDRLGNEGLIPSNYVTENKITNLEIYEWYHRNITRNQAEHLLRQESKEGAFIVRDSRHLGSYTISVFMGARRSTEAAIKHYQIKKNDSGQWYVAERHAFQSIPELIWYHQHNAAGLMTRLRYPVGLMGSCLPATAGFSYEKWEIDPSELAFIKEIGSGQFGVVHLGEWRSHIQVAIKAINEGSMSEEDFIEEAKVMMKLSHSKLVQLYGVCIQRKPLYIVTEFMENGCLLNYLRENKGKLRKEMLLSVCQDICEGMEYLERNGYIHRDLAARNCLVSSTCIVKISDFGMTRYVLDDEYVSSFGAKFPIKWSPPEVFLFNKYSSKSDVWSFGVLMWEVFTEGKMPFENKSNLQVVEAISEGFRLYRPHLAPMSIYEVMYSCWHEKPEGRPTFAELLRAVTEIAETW
Chain of BTK (Q06187 whole entry): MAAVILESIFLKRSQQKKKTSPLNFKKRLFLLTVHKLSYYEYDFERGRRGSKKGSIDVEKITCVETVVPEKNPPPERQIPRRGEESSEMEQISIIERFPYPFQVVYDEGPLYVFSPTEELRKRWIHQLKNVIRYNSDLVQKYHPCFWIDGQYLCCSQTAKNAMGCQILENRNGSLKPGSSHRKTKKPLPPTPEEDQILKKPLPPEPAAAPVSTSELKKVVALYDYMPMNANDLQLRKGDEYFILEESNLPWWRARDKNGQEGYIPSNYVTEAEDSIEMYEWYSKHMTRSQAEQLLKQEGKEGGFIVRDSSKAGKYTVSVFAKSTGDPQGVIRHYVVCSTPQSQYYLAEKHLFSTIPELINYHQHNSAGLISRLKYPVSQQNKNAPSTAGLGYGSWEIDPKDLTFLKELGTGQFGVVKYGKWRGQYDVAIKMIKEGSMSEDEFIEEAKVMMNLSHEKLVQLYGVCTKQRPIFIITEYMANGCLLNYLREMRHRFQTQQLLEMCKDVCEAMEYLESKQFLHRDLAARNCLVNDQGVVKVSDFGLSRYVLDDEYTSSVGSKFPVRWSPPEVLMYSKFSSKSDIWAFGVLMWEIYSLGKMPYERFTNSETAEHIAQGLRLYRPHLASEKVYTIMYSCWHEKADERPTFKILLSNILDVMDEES
Chain of Tec (h) activated (P42680 whole entry): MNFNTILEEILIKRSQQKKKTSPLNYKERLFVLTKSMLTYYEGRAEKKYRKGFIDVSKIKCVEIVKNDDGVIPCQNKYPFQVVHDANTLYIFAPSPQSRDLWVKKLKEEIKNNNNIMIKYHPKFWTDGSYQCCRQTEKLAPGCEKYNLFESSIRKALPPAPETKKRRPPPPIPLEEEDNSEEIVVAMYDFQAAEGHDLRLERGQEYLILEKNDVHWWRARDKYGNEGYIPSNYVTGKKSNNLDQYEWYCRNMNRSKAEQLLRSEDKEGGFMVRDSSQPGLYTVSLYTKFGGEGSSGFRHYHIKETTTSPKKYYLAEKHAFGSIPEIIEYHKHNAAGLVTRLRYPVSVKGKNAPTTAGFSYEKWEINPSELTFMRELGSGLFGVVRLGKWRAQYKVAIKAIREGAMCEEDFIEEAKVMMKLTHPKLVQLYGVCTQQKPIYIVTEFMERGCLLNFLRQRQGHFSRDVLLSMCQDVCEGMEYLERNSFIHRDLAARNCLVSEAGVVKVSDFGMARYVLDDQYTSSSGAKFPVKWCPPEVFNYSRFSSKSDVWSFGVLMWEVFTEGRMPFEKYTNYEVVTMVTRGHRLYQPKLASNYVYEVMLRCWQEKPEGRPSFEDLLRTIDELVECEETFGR
Chain of Itk (h) (Q08881 whole entry): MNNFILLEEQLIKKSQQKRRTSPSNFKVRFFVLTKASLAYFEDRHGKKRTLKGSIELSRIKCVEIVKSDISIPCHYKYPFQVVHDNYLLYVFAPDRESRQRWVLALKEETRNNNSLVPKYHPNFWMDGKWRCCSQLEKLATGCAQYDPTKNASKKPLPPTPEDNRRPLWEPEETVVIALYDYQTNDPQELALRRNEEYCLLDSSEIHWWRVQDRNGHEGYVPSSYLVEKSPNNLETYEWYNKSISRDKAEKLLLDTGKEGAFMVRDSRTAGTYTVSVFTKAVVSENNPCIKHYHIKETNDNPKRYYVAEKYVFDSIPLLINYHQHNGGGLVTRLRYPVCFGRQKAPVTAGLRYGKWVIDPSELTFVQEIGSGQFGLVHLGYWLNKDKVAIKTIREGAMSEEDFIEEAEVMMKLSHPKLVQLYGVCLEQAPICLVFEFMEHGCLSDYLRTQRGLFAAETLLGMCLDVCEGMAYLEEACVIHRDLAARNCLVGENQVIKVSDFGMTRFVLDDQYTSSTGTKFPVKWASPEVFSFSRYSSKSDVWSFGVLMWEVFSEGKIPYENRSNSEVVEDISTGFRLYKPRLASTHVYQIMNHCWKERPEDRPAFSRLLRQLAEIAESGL
Chain of EGFR T790M/L858R (P00533 25-1210 T790M/L858R limits assumed): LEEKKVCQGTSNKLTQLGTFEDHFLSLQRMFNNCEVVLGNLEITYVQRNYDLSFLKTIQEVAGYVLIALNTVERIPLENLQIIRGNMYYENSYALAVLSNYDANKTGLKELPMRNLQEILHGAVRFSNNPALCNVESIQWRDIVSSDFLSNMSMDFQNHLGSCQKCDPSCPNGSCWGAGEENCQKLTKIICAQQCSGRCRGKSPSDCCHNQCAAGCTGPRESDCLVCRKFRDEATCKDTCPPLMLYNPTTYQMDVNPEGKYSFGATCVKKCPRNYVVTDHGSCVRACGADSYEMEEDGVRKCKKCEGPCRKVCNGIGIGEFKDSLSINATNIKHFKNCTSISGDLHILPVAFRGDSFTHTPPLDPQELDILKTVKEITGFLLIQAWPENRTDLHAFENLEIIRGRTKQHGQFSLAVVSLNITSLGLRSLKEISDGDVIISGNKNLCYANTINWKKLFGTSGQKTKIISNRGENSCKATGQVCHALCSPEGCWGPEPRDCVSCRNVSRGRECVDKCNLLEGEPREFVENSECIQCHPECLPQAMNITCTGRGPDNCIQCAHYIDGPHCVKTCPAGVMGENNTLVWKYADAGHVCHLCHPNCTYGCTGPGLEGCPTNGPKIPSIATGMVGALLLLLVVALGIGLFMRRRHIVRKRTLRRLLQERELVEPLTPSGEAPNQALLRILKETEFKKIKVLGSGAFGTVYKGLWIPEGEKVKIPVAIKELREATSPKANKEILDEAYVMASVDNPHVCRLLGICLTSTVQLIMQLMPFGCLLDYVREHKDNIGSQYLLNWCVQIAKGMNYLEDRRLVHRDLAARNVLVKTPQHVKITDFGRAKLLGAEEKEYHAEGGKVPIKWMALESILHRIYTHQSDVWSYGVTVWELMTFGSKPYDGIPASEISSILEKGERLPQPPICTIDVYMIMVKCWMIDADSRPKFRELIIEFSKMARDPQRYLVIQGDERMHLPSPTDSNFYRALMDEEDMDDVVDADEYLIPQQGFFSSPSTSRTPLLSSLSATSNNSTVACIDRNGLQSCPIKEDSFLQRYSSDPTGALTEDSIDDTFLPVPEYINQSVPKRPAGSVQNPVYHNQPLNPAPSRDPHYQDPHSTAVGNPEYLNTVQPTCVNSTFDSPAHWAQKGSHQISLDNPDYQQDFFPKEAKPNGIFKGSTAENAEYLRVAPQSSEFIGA

IC50 [1]: ≤ 100 nM
t1/2 ([2]; male SD rat): 7.9 h
AUC(0-inf) ([2]; plasma, male SD rat): 1400 ng·h/mL
Cmax ([2]; plasma, male SD rat): 668 ng/mL
half-life ([2]; plasma, male SD rat): 7.9 h
AUC(0-t) ([2]; plasma, male SD rat): 1300 ng·h/mL
IC50 (Txk (h)): 5000 nM
IC50 (HCC827 NSCLC cell): > 10000 nM
SMILES: CC#CC(=O)N1CCC[C@H]1c1nc(-c2ccc(C(=O)Nc3ccccn3)cc2)c2c(N)nccn12 [ACP-196, Acalabrutinib, reference compound]

inhibitory effect on EGFR (in words) (EGFR T790M/L858R): does not inhibit
IC50 (EGFR T790M/L858R; Km ATP): > 10000 nM
IC50 [1]: ≤ 100 nM
t1/2 ([2]; male SD rat): 4.2 h
AUC(0-inf) ([2]; plasma, male SD rat): 3490 ng·h/mL
Cmax ([2]; plasma, male SD rat): 1540 ng/mL
Tmax ([2]; plasma, male SD rat): 0.5 h
half-life ([2]; plasma, male SD rat): 4.2 h
AUC(0-t) ([2]; plasma, male SD rat): 3480 ng·h/mL
AUC relative to ACP-196 ([2]; rat): more than double
Cmax relative to ACP-196 ([2]; rat): more than double
half-life compared to ACP-196 (in words) ([2]; rat): shorter half-life
plasma exposure amount compared to ACP-196 (in words) ([2]; rat): higher plasma exposure amount
inhibitory activity to Tec (in words) (Tec (h) activated): very low
IC50 (Tec (h) activated; Km ATP, radiometric): 218 nM
inhibitory activity to Txk (in words) (Txk (h)): very low
IC50 (Txk (h)): 4540 nM
IC50 (BTK): ≤ 100 nM
weight of the animal compared to before the administration ([3]; each administration group, 50, 100, 200 mg/kg oral): increased
inhibitory activity to ITK (in words) (Itk (h)): very low
IC50 (Itk (h); Km ATP, radiometric): > 10000 nM
IC50 (HCC827 NSCLC cell): > 10000 nM
SMILES: CC#CC(=O)N1CCC[C@H]1c1nc(-c2ccc(OCc3ccccc3)cc2)c2c(N)nccn12 [Compound 1, (S)-1-(2-(8-amino-1-(4-(benzyloxy)phenyl)imidazo[1,5-a]pyrazin-3-yl)pyrrolidin-1-yl)but-2-yn-1-one]
T/C (relative tumor volume increased ratio) ([3]; 50 mg/kg oral once a day): 71%
T/C (relative tumor volume increased ratio) ([3]; 100 mg/kg oral once a day): 7%
T/C (relative tumor volume increased ratio) ([3]; 200 mg/kg oral once a day): −91%
inhibition of growth of TMD-8 transplanted tumor (in words) ([3]; oral administration, 50-200 mg/kg): inhibit the growth of TMD-8 transplanted tumor dose-dependently; also recorded: dosage-dependently inhibit the growth

IC50 [1]: 100 to 500 nM
IC50 (BTK): > 750 nM
IC50 (HCC827 NSCLC cell): 1000 to 10000 nM
SMILES: CC#CC(=O)N1CCC[C@H]1c1nc(-c2ccc(OCc3ccc(C(F)(F)F)cc3)cc2)c2c(N)nccn12 [Compound 2, (S)-1-(2-(8-amino-1-(4-((4-(trifluoromethyl)benzyl)oxy)phenyl)imidazo[1,5-a]pyrazin-3-yl)pyrrolidin-1-yl)but-2-yn-1-one]

IC50 [1]: 100 to 500 nM
IC50 (BTK): > 750 nM
IC50 (HCC827 NSCLC cell): > 10000 nM
SMILES: CC#CC(=O)N1CCC[C@H]1c1nc(-c2ccc(OCc3ccc(F)cc3)cc2)c2c(N)nccn12 [Compound 3, (S)-1-(2-(8-amino-1-(4-((4-fluorobenzyl)oxy)phenyl)imidazo[1,5-a]pyrazin-3-yl)pyrrolidin-1-yl)but-2-yn-1-one]

IC50 (BTK): 300 to 750 nM
SMILES: CC#CC(=O)N1CCC[C@H]1c1nc(-c2ccc(OCc3ccccn3)cc2)c2c(N)nccn12 [Compound 5, (S)-1-(2-(8-amino-1-(4-(pyridin-2-ylmethoxy)phenyl)imidazo[1,5-a]pyrazin-3-yl)pyrrolidin-1-yl)but-2-yn-1-one]

IC50 [1]: 100 to 500 nM
IC50 (BTK): > 750 nM
IC50 (HCC827 NSCLC cell): > 10000 nM
SMILES: CC#CC(=O)N1CCC[C@H]1c1nc(-c2ccc(OCc3cc(F)ccn3)cc2)c2c(N)nccn12 [Compound 6, (S)-1-(2-(8-amino-1-(4-((4-fluoropyridin-2-yl)methoxy)phenyl)imidazo[1,5-a]pyrazin-3-yl)pyrrolidin-1-yl)but-2-yn-1-one]

IC50 (BTK): > 750 nM
SMILES: CC#CC(=O)N1CCC[C@H]1c1nc(-c2ccc(OCc3ccccc3)nc2)c2c(N)nccn12 [Compound 9, (S)-1-(2-(8-amino-1-(6-(benzyloxy)pyridin-3-yl)imidazo[1,5-a]pyrazin-3-yl)pyrrolidin-1-yl)but-2-yn-1-one]

IC50 (BTK): 300 to 750 nM
SMILES: CC#CC(=O)N1CCC[C@H]1c1nc(-c2ccc(OCCc3ccccc3)cc2)c2c(N)nccn12 [Compound 17, (S)-1-(2-(8-amino-1-(4-phenethoxyphenyl)imidazo[1,5-a]pyrazin-3-yl)pyrrolidin-1-yl)but-2-yn-1-one]

IC50 [1]: ≤ 100 nM
IC50 (BTK): ≤ 100 nM
IC50 (HCC827 NSCLC cell): > 10000 nM
SMILES: C=CC(=O)N1CCC[C@H]1c1nc(-c2ccc(OCc3ccccc3)cc2)c2c(N)nccn12 [Compound 21, (S)-1-(2-(8-amino-1-(4-(benzyloxy)phenyl)imidazo[1,5-a]pyrazin-3-yl)pyrrolidin-1-yl)prop-2-en-1-one]

IC50 [1]: ≤ 100 nM
IC50 (BTK): ≤ 100 nM
IC50 (HCC827 NSCLC cell): > 10000 nM
SMILES: C=CC(=O)N1CCC[C@H]1c1nc(-c2ccc(OCc3ccccc3)nc2)c2c(N)nccn12 [Compound 25, (S)-1-(2-(8-amino-1-(6-(benzyloxy)pyridin-3-yl)imidazo[1,5-a]pyrazin-3-yl)pyrrolidin-1-yl)prop-2-en-1-one]

IC50 [1]: ≤ 100 nM
IC50 (BTK): 100 to 300 nM
IC50 (HCC827 NSCLC cell): 1000 to 10000 nM
SMILES: C=CC(=O)N1CCC[C@H]1c1nc(-c2ccc(OCc3ccccn3)cc2)c2c(N)nccn12 [Compound 29, (S)-1-(2-(8-amino-1-(4-(pyridin-2-ylmethoxy)phenyl)imidazo[1,5-a]pyrazin-3-yl)pyrrolidin-1-yl)prop-2-en-1-one]
